These results are taken from PubChem BioAssay AID256 (DTP/NCI, 2004).

“And” between values parts separate entries of the source, which are not always exact repeats. Equal entries are not always repeated. Inconclusive results and toxic doses are left out.

This assay has as its system CD2F1 mice, L1210 leukemia ip, survival T/C. Briefly: NCI In Vivo Anticancer Drug Screen. Data for tumor model L1210 Leukemia (intraperitoneal) in CD2F1 (CDF1) mice. Conditions: endpoint: mean survival time, higher = longer survival. The procedure, abridged: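 Read-out first: treated-group measurement over vehicle-control measurement, expressed as a ratio. Animals bore a transplanted tumor line and were dosed with compound or vehicle.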

Setting [1] is: dose: 100.0 mg/kg/injection, schedule: Q04DX003 (ip), vehicle: saline with Tween-80.
Where [2] appears, read: dose: 200.0 mg/kg/injection, schedule: Q04DX003 (ip), vehicle: saline with Tween-80.
[3] abbreviates: dose: 400.0 mg/kg/injection, schedule: Q04DX003 (ip), vehicle: saline with Tween-80.
The mark [4] stands for this setting: dose: 100.0 mg/kg/injection, schedule: Q01DX009 (ip), vehicle: saline with Tween-80.
Where [5] appears, read: dose: 200.0 mg/kg/injection, schedule: Q01DX009 (ip), vehicle: saline with Tween-80.
[6] abbreviates: dose: 400.0 mg/kg/injection, schedule: Q01DX009 (ip), vehicle: saline with Tween-80.

As for `CCO[Si](C)(OCC)OCC`, the T/C is, setting by setting: (dose: 50.0 mg/kg/injection, schedule: Q01DX009 (ip), vehicle: saline) 101 % of control; (dose: 100.0 mg/kg/injection, schedule: Q01DX009 (ip), vehicle: saline) 101 % of control; (dose: 200.0 mg/kg/injection, schedule: Q01DX009 (ip), vehicle: saline) 96 % of control.
`C/C(C(=O)O)=C(\C)C(=O)O`: the T/C reads like this: (dose: 100.0 mg/kg/injection, schedule: Q01DX005 (ip), vehicle: saline) 101 % of control; (dose: 200.0 mg/kg/injection, schedule: Q01DX005 (ip), vehicle: saline) 101 % of control; (dose: 400.0 mg/kg/injection, schedule: Q01DX005 (ip), vehicle: saline) 101 % of control.
On to `CCOC(=O)c1cc2cc([N+](=O)[O-])ccc2[nH]1`, for which the T/C was 92 % of control under setting [1], 87 % of control under setting [2] and 91 % of control under setting [3].
In the case of `CN(C)N=Nc1ccccc1C(N)=O`, the T/C is 106 % of control (dose: 18.8 mg/kg/injection, schedule: Q01DX009 (ip), vehicle: Klucel (hydroxypropylcellulose) (HPC)); 117 % of control and 106 % of control (dose: 37.5 mg/kg/injection, schedule: Q01DX009 (ip), vehicle: Klucel (hydroxypropylcellulose) (HPC)); 116 % of control and 123 % of control (dose: 75.0 mg/kg/injection, schedule: Q01DX009 (ip), vehicle: Klucel (hydroxypropylcellulose) (HPC)); 151 % of control (dose: 100.0 mg/kg/injection, schedule: Q01DX009 (ip), vehicle: Klucel (hydroxypropylcellulose) (HPC)); 123 % of control and 86 % of control and 101 % of control (dose: 150.0 mg/kg/injection, schedule: Q01DX009 (ip), vehicle: Klucel (hydroxypropylcellulose) (HPC)).
On to `Oc1c(Br)cc(Br)cc1/C=N/c1nc(-c2ccccc2)cs1.Oc1c(Br)cc(Br)cc1/C=N/c1nc(-c2ccccc2)cs1.[Co]`, for which the T/C runs as follows: (dose: 25.0 mg/kg/injection, schedule: Q01DX001 (ip), vehicle: saline) 100 % of control; (dose: 50.0 mg/kg/injection, schedule: Q01DX001 (ip), vehicle: saline) 100 % of control; (dose: 100.0 mg/kg/injection, schedule: Q01DX001 (ip), vehicle: saline) 87 % of control.
As to `COc1ccc2c(c1)c(C(=O)O)cc(=O)n2C`, the T/C reads like this: (dose: 100.0 mg/kg/injection, schedule: Q01DX009 (ip), vehicle: saline sonified) 101 % of control; under setting [1], 97 % of control; (dose: 200.0 mg/kg/injection, schedule: Q01DX009 (ip), vehicle: saline sonified) 95 % of control; under setting [2], 102 % of control; (dose: 400.0 mg/kg/injection, schedule: Q01DX009 (ip), vehicle: saline sonified) 95 % of control; under setting [3], 96 % of control.
In the case of `Cc1ccc(C(C#N)Nc2ccccc2)cc1` (configuration not stated), the T/C under setting [4] was 103 % of control; the T/C under setting [1] was 100 % of control; the T/C under setting [5] was 88 % of control; the T/C under setting [2] was 91 % of control; the T/C under setting [6] was 93 % of control; the T/C under setting [3] is 97 % of control.
As for `ClCCOC(c1ccc(Cl)cc1)c1ccc(Cl)cc1`, the T/C reads like this: (dose: 100.0 mg/kg/injection, schedule: Q04DX003 (ip), vehicle: saline + alcohol) 96 % of control; (dose: 200.0 mg/kg/injection, schedule: Q04DX003 (ip), vehicle: saline + alcohol) 94 % of control; (dose: 400.0 mg/kg/injection, schedule: Q04DX003 (ip), vehicle: saline + alcohol) 100 % of control.
Take `COC(=O)CCC1CCC(=O)O1` (configuration not stated): the T/C under setting [4] was 98 % of control; the T/C (dose: 100.0 mg/kg/injection, schedule: Q04DX003 (ip), vehicle: saline) is 102 % of control; the T/C under setting [5] is 105 % of control; the T/C (dose: 200.0 mg/kg/injection, schedule: Q04DX003 (ip), vehicle: saline) is 100 % of control; the T/C under setting [6] is 94 % of control; the T/C (dose: 400.0 mg/kg/injection, schedule: Q04DX003 (ip), vehicle: saline) is 100 % of control.
`COc1cc(NC(C)=O)c2ncccc2c1Br`: the T/C is 104 % of control under setting [1], 97 % of control under setting [2] and 92 % of control under setting [3].
Turning to `CN1C(=O)CC(c2ccc(N3C(=O)C=CC3=O)cc2)C1=O` (configuration not stated), the T/C was 96 % of control (dose: 6.25 mg/kg/injection, schedule: Q04DX002 (ip), vehicle: saline with Tween-80); 103 % of control (dose: 12.5 mg/kg/injection, schedule: Q04DX002 (ip), vehicle: saline with Tween-80); 96 % of control (dose: 25.0 mg/kg/injection, schedule: Q04DX002 (ip), vehicle: saline with Tween-80).
Turning to `Cc1ccc(C(=O)C=C(C(F)(F)F)C(F)(F)F)cc1`, the T/C runs as follows: (dose: 6.25 mg/kg/injection, schedule: Q01DX009 (ip), vehicle: saline with Tween-80) 102 % of control; (dose: 12.5 mg/kg/injection, schedule: Q01DX009 (ip), vehicle: saline with Tween-80) 98 % of control; (dose: 25.0 mg/kg/injection, schedule: Q01DX009 (ip), vehicle: saline with Tween-80) 98 % of control.
For `O=P(Nc1ccccc1)(Oc1c(F)c(F)c(F)c(F)c1F)N(CCCl)CCCl` (configuration not stated), the T/C (dose: 62.5 mg/kg/injection, schedule: Q01DX001 (ip), vehicle: other) was 87 % of control; the T/C (dose: 125.0 mg/kg/injection, schedule: Q01DX001 (ip), vehicle: other) was 107 % of control; the T/C (dose: 250.0 mg/kg/injection, schedule: Q01DX001 (ip), vehicle: other) is 96 % of control; the T/C (dose: 500.0 mg/kg/injection, schedule: Q01DX001 (ip), vehicle: other) is 96 % of control.
In the case of `CCOc1nc(-c2ccccc2)nc(N)c1Cl`, the T/C is 98 % of control (dose: 100.0 mg/kg/injection, schedule: Q04DX002 (ip), vehicle: saline with Tween-80); 98 % of control (dose: 200.0 mg/kg/injection, schedule: Q04DX002 (ip), vehicle: saline with Tween-80); 98 % of control (dose: 400.0 mg/kg/injection, schedule: Q04DX002 (ip), vehicle: saline with Tween-80).
With `CC(C(C(=O)O)S(=O)(=O)O)C(C(=O)O)S(=O)(=O)O` (configuration not stated), the T/C is, setting by setting: (dose: 12.5 mg/kg/injection, schedule: Q01DX001 (ip), vehicle: other) 91 % of control; (dose: 25.0 mg/kg/injection, schedule: Q01DX001 (ip), vehicle: other) 95 % of control; (dose: 50.0 mg/kg/injection, schedule: Q01DX001 (ip), vehicle: other) 98 % of control.
In the case of `N/C(CCSc1ccccc1N=Cc1ccccc1O)=N/O`, the T/C (dose: 3.13 mg/kg/injection, schedule: Q01DX009 (ip), vehicle: olive oil, sesame oil, peanut oil) is 95 % of control; the T/C (dose: 6.25 mg/kg/injection, schedule: Q01DX009 (ip), vehicle: olive oil, sesame oil, peanut oil) is 94 % of control; the T/C (dose: 12.5 mg/kg/injection, schedule: Q01DX009 (ip), vehicle: olive oil, sesame oil, peanut oil) is 98 % of control; the T/C (dose: 25.0 mg/kg/injection, schedule: Q01DX009 (ip), vehicle: olive oil, sesame oil, peanut oil) is 100 % of control; the T/C (dose: 50.0 mg/kg/injection, schedule: Q01DX009 (ip), vehicle: olive oil, sesame oil, peanut oil) was 100 % of control.
